Results published in publication PMC9885530, “Identification of Natural Products Inhibiting SARS-CoV-2 by Targeting Viral Proteases: A Combined in Silico and in Vitro Approach” (Journal of Natural Products, 2023).
Values joined by “and” are separate entries in the source; they are usually repeats but may differ in a detail not shown here. Identical values can stand only once. Like-named read-outs stand apart in the source and are kept apart here.

Experiments:
[1] = test system: SARS-CoV-2; assay: Antiviral assay in Calu-3 cells (spike staining); assay type: cell-based
[2] = test system: SARS-CoV-2; assay: Antiviral assay in Caco-2 cells; assay type: cell-based
[3] = test system: M^pro; conditions: read-out: M^pro IC50 previously reported, cited from earlier work
[4] = Cytotoxicity in Calu-3 cells; conditions: human
[5] = Cytotoxicity in Caco-2 cells; conditions: human
[6] = target: T1, SARS-CoV-2 PLpro (Severe acute respiratory syndrome coronavirus 2, UniProt P0DTD1); assay: biochemical; design: papain-like protease (PL^pro; domain of nsp3); purchased Anaspec (Fremont, USA) AS-72263; conditions: for SARS-CoV-2 PLpro inhibition % enzyme inhibition (20 µM): commercial Anaspec assay kit; for inhibition at 20 µM: read-out: SARS-CoV-2 PLpro inhibition % enzyme inhibition (20 µM)
[7] = target: T1, SARS-CoV-2 PLpro; assay: PL^pro fluorogenic peptide cleavage assay (substrate Z-RLRGG-AMC); assay type: biochemical; design: papain-like protease (PL^pro; domain of nsp3); His; purchased BPS Biosciences BPS-100735-1
[8] = target: SARS-CoV-2 M^pro (Severe acute respiratory syndrome coronavirus 2, UniProt P0DTD1); assay: biochemical; assay type: biochemical; conditions: buffer with 5 mM DTT; for inhibition at 20 µM: 20 μM compound, for values marked a the relative standard deviation of 6% applies, read-out: SARS-CoV-2 M^pro enzyme inhibition (%) 20 μM; for inhibition at 100 µM: 100 μM compound, read-out: SARS-CoV-2 M^pro enzyme inhibition (%) 100 μM
[9] = in vitro; conditions: human
[10] = in vitro; conditions: human, Caco-2
[11] = target: T2, M^pro (Severe acute respiratory syndrome coronavirus 2, UniProt P0DTD1); assay type: binding; conditions: 2 μM protein, 50 μM ligand
[12] = target: T2, M^pro; assay: Competitive 1H CPMG relaxation dispersion NMR with compound 4 as reporter ligand; assay type: binding, SARS-CoV-2; conditions: competition with compound 4
[13] = Severe acute respiratory syndrome coronavirus 2, Calu-3 cells, MOI 0.01, 48 h postinfection, read-out: Anti-SARS-CoV-2 activity IC50

Q: Which IC50 [1, 13] does the source give for `CC(=O)O[C@H](CC=C(C)C)C1=CC(=O)c2c(O)ccc(O)c2C1=O` [Compound 30, acetylshikonin] here?
A: Its IC50 is > 100 µM.

Q: And the IC50 ([2]; Severe acute respiratory syndrome coronavirus 2, Caco-2, read-out: Anti SARS-CoV-2 activity Caco-2 IC50 (µM))?
A: Its IC50 is > 100 µM.

Q: And the IC50 ([3]; reported inhibition later described as assay artifact (ref 34))?
A: Its IC50 is 3800 nM.

Q: And the CC50 [4]?
A: The CC50 was > 100 µM.

Q: And the CC50 [5]?
A: Its CC50 is 65.8 µM.

Q: What about the “SARS-CoV-2 PLpro inhibition % enzyme inhibition (20 µM)” value [6] of the same compound?
A: Its value is “significant enzyme inhibition”.

Q: What about the inhibition at 20 µM [6] of the same compound?
A: The inhibition at 20 µM was 100 ± 9.5%.

Q: What about the IC50 ([7]; Z-RLRGG-AMC substrate) of the same compound?
A: The IC50 was 24.3 µM.

Q: For `O=c1cc(-c2ccccc2)oc2cc(O)c(O)c(O)c12` [Compound 4, baicalein, reference compound], which inhibition at 20 µM [8] is on record?
A: The inhibition at 20 µM was 8.6%.

Q: What about the inhibition at 100 µM [8] of the same compound?
A: The inhibition at 100 µM was 90 ± 1.4%.

Q: And the IC50 [3]?
A: The IC50 was 980 nM.

Q: Which results are given for `COc1ccc2c(=O)c(Oc3ccc(C(=O)NC(C)Cc4c[nH]c5ccccc45)cc3)coc2c1` (stereo not drawn) [Compound 42]?
A: IC50 ([1]; Severe acute respiratory syndrome coronavirus 2, Calu-3, 48 h, read-out: Anti-SARS-CoV-2 activity IC50 (μM)): > 100 µM; IC50 ([2]; Severe acute respiratory syndrome coronavirus 2, Caco-2 cells, read-out: Anti SARS-CoV-2 activity Caco-2 IC50): 7.1 µM; CC50 [9]: > 100 µM; CC50 [10]: > 100 µM; SARS-CoV-2 PLpro inhibition % enzyme inhibition (20 µM) [6]: significant enzyme inhibition; inhibition at 20 µM [6]: 82.3 ± 25.3%; inhibition at 20 µM ([7]; read-out: SARS-CoV-2 PL^pro enzyme inhibition (%) 20 μM): 4.89 ± 1.3%; inhibition at 100 µM ([7]; read-out: SARS-CoV-2 PL^pro enzyme inhibition (%) 100 μM): 8.8 ± 7%

Q: With `CC(C)=CCCC1=C[C@H](c2c(O)cc3c(c2O)C(=O)C[C@@H](c2ccc(O)cc2O)O3)[C@@H](C(=O)c2ccc(O)cc2O)[C@H](c2ccc(O)cc2O)C1` [Compound 15, sanggenon G] as the compound, how does the inhibition at 20 µM [8] read?
A: Its inhibition at 20 µM is 92.6%.

Q: What about the inhibition at 100 µM [8] of the same compound?
A: The inhibition at 100 µM was 99.6 ± 0.2%.

Q: And the IC50 ([8]; read-out: SARS-CoV-2 M^pro IC50)?
A: The IC50 was 4.82 µM and 4.8 µM.

Q: And the “selectivity index (SI)” value ([1]; Calu-3 cells, cytotoxicity vs anti-SARS-CoV-2 activity)?
A: The value was 6.5 and > 5.

Q: And the IC50 [1, 13]?
A: Its IC50 is 7.6 µM.

Q: What about the STD signals [11] of the same compound?
A: The STD signals was “no STD signals were detected”.

Q: What about the “displacement of reporter ligand 4 from M^pro (CPMG-RD)” value [12] of the same compound?
A: The value was “displacement from the binding site”.

Q: What about the CC50 [9] of the same compound?
A: The CC50 was 49.1 µM.
